From US8563594B2, “S1P3 receptor inhibitors for treating pain” (Allergan, Inc., priority 2007, dated 2013)

Target: S1P1 receptor (Homo sapiens (Human), UniProt P21453)
Test: FLIPR assay (Ca2+ response), S1P1 receptor
Format: cell-based
Conditions: receptor activity at highest dose tested (10 μM) relative to 5 nM sphingosine-1-phosphate

S1P1 receptor, sequence (P21453 whole entry): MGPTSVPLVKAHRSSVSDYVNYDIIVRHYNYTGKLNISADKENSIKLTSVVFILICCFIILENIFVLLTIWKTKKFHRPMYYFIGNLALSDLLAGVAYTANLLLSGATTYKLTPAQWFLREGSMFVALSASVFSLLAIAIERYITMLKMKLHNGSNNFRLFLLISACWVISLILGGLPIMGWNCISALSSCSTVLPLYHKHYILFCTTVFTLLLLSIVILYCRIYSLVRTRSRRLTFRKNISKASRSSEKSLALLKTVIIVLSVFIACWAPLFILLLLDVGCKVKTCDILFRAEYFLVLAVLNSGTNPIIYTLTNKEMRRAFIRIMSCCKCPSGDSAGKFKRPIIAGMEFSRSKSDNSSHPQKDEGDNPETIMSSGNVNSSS

Row | SMILES | S1P1 percent efficacy (in parenthesis) | S1P1 percent efficacy (in parenthesis) (selective inhibitor table)
1 | CCc1ccc(-c2ccc(CNCCCP(=O)(O)O)nc2-c2ccccc2)cc1 [Compound 148] | 57% | –
2 | CCc1ccc(-c2ccc(CNCCCP(=O)(O)O)nc2-c2ccccc2)cc1 [drawing 165] | – | 57%
3 | CCCc1ccc(-c2ccc(CNCCCP(=O)(O)O)nc2-c2ccccc2)cc1 [Compound 154] | 69% | –
4 | Cc1ccc(-c2ccc(CNCCCP(=O)(O)O)nc2-c2ccccc2)cc1 [Compound 147] | 36% | –
